Consider eleven compounds from paper PMC8319832, “Fine-Tuning of Alkaline Residues on the Hydrophilic Face Provides a Non-toxic Cationic α-Helical Antimicrobial Peptide Against Antibiotic-Resistant ESKAPE Pathogens” (Frontiers in Microbiology, 2021).

What all share (test): Drug sensitivity, Kirby-Bauer test
Common to all, as to parameters: key: 'S' represents susceptibility; 'I' represents intermediate efficacy; 'R' represents resistance

One experiment relates to S. aureus 1176. It is filed as cell-based, Staphylococcus aureus. Conditions: clinical isolate. Here is the method:
(§1) The bacteria used in this study included the standard strains S. aureus ATCC29213 and ATCC25923, E. faecalis ATCC29212, E. coli ATCC25922 and ATCC35218, A. baumannii ATCC19606, K. pneumoniae ATCC700603 and P. aeruginosa ATCC27853, these strains were purchased from the China Center of Type Culture Collection (CCTCC). The antimicrobial activities of the peptides were also determined against clinically isolated strains S. aureus 4188, 9124, 1176, S. epidermidis 9092, 6943, 888, E. faecalis 901, E. faecium 898, E. coli 2678, 2687, K. pneumoniae 9126, P. aeruginosa 9014, 9042, and A. baumannii 906, 13012, 13079, 9068, these strains were acquired from Taihe Hospital, Hubei University of Medicine. The drug sensitivities of the clinical isolates to the antibiotics were determined by the Kirby-Bauer test ([Chinnambedu et al., 2020]).

The test system of a further experiment is S. aureus 4188. It is filed as cell-based, Staphylococcus aureus. The conditions noted are these: clinical isolate. On the procedure: as §1
For the next experiment, the system named is S. aureus 9124. The format is cell-based, Staphylococcus aureus. The conditions noted are these: clinical isolate, MRSA. On the procedure:
as §1

A further experiment has as its system S. epidermidis 6943. It is filed as cell-based. The conditions noted are these: clinical isolate, MRSE. Here is the method: as §1
For another experiment, the system named is S. epidermidis 888. It is filed as cell-based. Conditions: clinical isolate. Here is the method: as §1
Another experiment relates to S. epidermidis 9092. The format is cell-based. The conditions noted are these: clinical isolate, MRSE. Here is the method:
as §1

The next experiment relates to E. coli 2678. It is filed as cell-based, Escherichia coli. The conditions noted are these: clinical isolate, ESBL. Here is the method:
as §1

The next experiment relates to E. coli 2687. The format is cell-based, Escherichia coli. The conditions noted are these: clinical isolate, ESBL. On the procedure: as §1
Another experiment deals with P. aeruginosa 9014. The format is cell-based, Pseudomonas aeruginosa. The conditions noted are these: clinical isolate, CRE, MDR. Here is the method: as §1
The subject of the next experiment is P. aeruginosa 9042. It is filed as cell-based, Pseudomonas aeruginosa. The conditions noted are these: clinical isolate. Here is the method: as §1
The next experiment has as its system A. baumannii 13012. The format is cell-based, Acinetobacter baumannii. The conditions noted are these: clinical isolate, CRE, MDR. Here is the method: as §1
A further experiment concerns A. baumannii 13079. The format is cell-based, Acinetobacter baumannii. The conditions noted are these: clinical isolate, CRE, MDR. On the procedure: as §1
In another experiment the test system is A. baumannii 9068. It is filed as cell-based, Acinetobacter baumannii. Conditions: clinical isolate, CRE, MDR. Here is the method:
as §1

In another experiment the test system is A. baumannii 906. The format is cell-based, Acinetobacter baumannii. The conditions noted are these: clinical isolate, CRE, MDR. Here is the method: as §1
In the next experiment the test system is K. pneumoniae 9126. It is filed as cell-based, Klebsiella pneumoniae. Conditions: clinical isolate, CRE. On the procedure:
as §1

For another experiment, the system named is E. faecium 898. It is filed as cell-based, Enterococcus faecium. Conditions: clinical isolate. On the procedure: as §1

In the case of `Cc1onc(-c2ccccc2)c1C(=O)N[C@@H]1C(=O)N2[C@@H]1SC(C)(C)[C@@H]2C(=O)O` [Oxazocilline], the “Drug sensitivity of the isolate to the antibiotic” value (“Drug sensitivity of the isolate” for short) with S. aureus 1176 is “S”; in the experiment on S. aureus 4188, “S”; with S. aureus 9124, “R”; with S. epidermidis 6943, “R”; with S. epidermidis 888 it was “S”; in the experiment with S. epidermidis 9092 it was “R”.
On to `C[C@@H](O)[C@H]1C(=O)N2C(C(=O)O)=C(SCCN=CN)C[C@H]12` [Imipenem], for which the “Drug sensitivity of the isolate” value was “S” with E. coli 2678; “S” in the experiment on E. coli 2687; “R” in the experiment on P. aeruginosa 9014; “R” with P. aeruginosa 9042; “R” in the experiment on A. baumannii 13012; “R” in the experiment on A. baumannii 13079. Moreover, the “Drug sensitivity of the isolate” value in the experiment on A. baumannii 9068, in the experiment on A. baumannii 906 and with K. pneumoniae 9126 was “R” in each case.
For `CC1(C)S[C@@H]2[C@H](NC(=O)[C@H](N)c3ccccc3)C(=O)N2[C@H]1C(=O)O` [Ampicillin], the “Drug sensitivity of the isolate” value in the experiment with E. coli 2678, in the experiment on E. coli 2687, in the experiment with P. aeruginosa 9014, in the experiment with P. aeruginosa 9042 and in the experiment on K. pneumoniae 9126 was “R” throughout.
`CC(C)(O/N=C(\C(=O)N[C@@H]1C(=O)N2C(C(=O)[O-])=C(C[n+]3ccccc3)CS[C@H]12)c1csc(N)n1)C(=O)O` [Ceftazidime]: the “Drug sensitivity of the isolate” value in the experiment with E. coli 2678 was “S”; in the experiment with E. coli 2687, “R”; with P. aeruginosa 9014 it was “R”; in the experiment with P. aeruginosa 9042 it was “S”; with A. baumannii 13012 it was “R”; with A. baumannii 13079 it was “R”. Besides, the “Drug sensitivity of the isolate” value in the experiment with A. baumannii 9068, with A. baumannii 906 and in the experiment with K. pneumoniae 9126 was “R” in each case.
`CN(C)[C@@H]1C(O)=C(C(N)=O)C(=O)[C@@]2(O)C(O)=C3C(=O)c4c(O)cccc4[C@@](C)(O)[C@H]3C[C@@H]12` [Tetracycline]: the “Drug sensitivity of the isolate” value is “S” in the experiment with S. aureus 1176; “S” in the experiment with S. aureus 4188; “R” in the experiment on S. aureus 9124; “S” with S. epidermidis 6943; “R” with S. epidermidis 888; “R” with S. epidermidis 9092. The “Drug sensitivity of the isolate” value in the experiment on E. faecium 898 is recorded as “R”.
As to `C[C@@H](O)[C@H]1C(=O)N2C(C(=O)O)=C(S[C@@H]3CN[C@H](C(=O)N(C)C)C3)[C@H](C)[C@H]12` [Meropenem], the “Drug sensitivity of the isolate” value with E. coli 2678 is listed as “S”; with E. coli 2687, “S”; in the experiment with P. aeruginosa 9014, “I”; in the experiment with P. aeruginosa 9042, “R”; in the experiment on A. baumannii 13012, “R”; with A. baumannii 13079, “R”. Moreover, the “Drug sensitivity of the isolate” value is “R” with A. baumannii 9068, “R” in the experiment on A. baumannii 906 and “S” in the experiment with K. pneumoniae 9126.
On to Piperacillin/tazobactam, for which the “Drug sensitivity of the isolate” value in the experiment with E. coli 2678 was “S”; with E. coli 2687, “S”; with P. aeruginosa 9014, “R”; with P. aeruginosa 9042, “S”; with A. baumannii 13012, “R”; in the experiment on A. baumannii 13079 it was “R”. The “Drug sensitivity of the isolate” value in the experiment on A. baumannii 9068 is listed as “R”; in the experiment on A. baumannii 906, “R”; in the experiment on K. pneumoniae 9126, “S”.
Regarding `CO[C@@]1(NC(=O)Cc2cccs2)C(=O)N2C(C(=O)O)=C(COC(N)=O)CS[C@@H]21` [Cefoxitin], the “Drug sensitivity of the isolate” value with S. aureus 1176 is on record as “R”; in the experiment with S. aureus 4188, “R”; with S. aureus 9124 it was “R”; with S. epidermidis 6943, “R”; in the experiment on S. epidermidis 888, “I”; in the experiment on S. epidermidis 9092 it was “R”.
For Ticarcillin/clavulanic acid, the “Drug sensitivity of the isolate” value was “S” with E. coli 2678; “R” in the experiment with P. aeruginosa 9014; “R” in the experiment with P. aeruginosa 9042; “R” with A. baumannii 13012; “R” in the experiment on A. baumannii 13079; “R” in the experiment with A. baumannii 9068. In addition, the “Drug sensitivity of the isolate” value with A. baumannii 906 is given as “R”; in the experiment with K. pneumoniae 9126 it was “S”.
Turning to `NCC[C@H](O)C(=O)N[C@@H]1C[C@H](N)[C@@H](O[C@H]2O[C@H](CN)[C@@H](O)[C@H](O)[C@H]2O)[C@H](O)[C@H]1O[C@H]1O[C@H](CO)[C@@H](O)[C@H](N)[C@H]1O` [Amikacin], the “Drug sensitivity of the isolate” value with E. coli 2678 is “S”; in the experiment on E. coli 2687, “S”; with P. aeruginosa 9014 it was “S”; with P. aeruginosa 9042 it was “S”; in the experiment with A. baumannii 13012 it was “R”; in the experiment on A. baumannii 13079, “R”. In addition, the “Drug sensitivity of the isolate” value is reported as “R” in the experiment with A. baumannii 9068, “R” in the experiment on A. baumannii 906 and “S” in the experiment on K. pneumoniae 9126.
Consider `C[C@H]1COc2c(N3CCN(C)CC3)c(F)cc3c(=O)c(C(=O)O)cn1c23` [Levofloxacin], for which the “Drug sensitivity of the isolate” value is given as “S” with S. aureus 1176; “S” in the experiment with S. aureus 4188; “S” in the experiment with S. aureus 9124; “I” in the experiment with S. epidermidis 6943; “R” in the experiment with S. epidermidis 888; “R” in the experiment with S. epidermidis 9092. The “Drug sensitivity of the isolate” value with E. faecium 898, in the experiment with E. coli 2678, in the experiment on E. coli 2687, with P. aeruginosa 9014, in the experiment on P. aeruginosa 9042 and in the experiment with A. baumannii 13012 was “R” throughout. The “Drug sensitivity of the isolate” value in the experiment with A. baumannii 13079 is “R”; in the experiment with A. baumannii 9068 it was “R”; in the experiment on A. baumannii 906, “R”; in the experiment with K. pneumoniae 9126 it was “S”.
